The target of assay [1] is Epidermal growth factor receptor (Homo sapiens, UniProt P00533). Briefly: In vitro inhibitory concentration against epidermal growth factor receptor.
The target of assay [2] is Receptor tyrosine-protein kinase erbB-2 (Homo sapiens, UniProt P04626). Briefly: In vitro inhibitory concentration against HER2.
Assay [3] can be described thus: In vitro inhibitory concentration against cyclin-dependent kinase 1. Also on record: species or system Homo sapiens.
The target in assay [4] is Cyclin-dependent kinase 2 (Homo sapiens, UniProt P24941). Put plainly: In vitro inhibitory concentration against cyclin-dependent kinase 2.
The test system of another assay is A-375. Briefly: Compound tested for anti-proliferative activity against A375 cells. Format: functional, cell-based. Particulars: Homo sapiens.
Another assay deals with HeLa. Put plainly: Compound tested for anti-proliferative activity against HeLa cells. In kind it is functional, cell-based. To be noted: Homo sapiens.
For the next assay, the system named is HCT-116. Briefly: Compound tested for anti-proliferative activity against HCT116 cells. In kind it is functional, cell-based. Particulars: Homo sapiens.
For assay [5], the target named is T1, Vascular endothelial growth factor receptor 2 (Homo sapiens, UniProt P35968). Briefly: In vitro inhibitory concentration against vascular endothelial growth factor receptor 2.
Assay [6] concerns the target T1, Vascular endothelial growth factor receptor 2. Put plainly: In vitro inhibitory concentration against Vascular endothelial growth factor receptor 2.

The text below walks through data of ChEMBL document CHEMBL1144370, “3-Acyl-2,6-diaminopyridines as cyclin-dependent kinase inhibitors: synthesis and biological evaluation” (Bioorg Med Chem Lett, 2005).

For orientation: IC50 means the concentration that inhibits the measured activity by half. Lower therefore signals inhibition by little substance.

The structures appear in SMILES notation.

Receptor tyrosine-protein kinase erbB-2, sequence (P04626 whole entry): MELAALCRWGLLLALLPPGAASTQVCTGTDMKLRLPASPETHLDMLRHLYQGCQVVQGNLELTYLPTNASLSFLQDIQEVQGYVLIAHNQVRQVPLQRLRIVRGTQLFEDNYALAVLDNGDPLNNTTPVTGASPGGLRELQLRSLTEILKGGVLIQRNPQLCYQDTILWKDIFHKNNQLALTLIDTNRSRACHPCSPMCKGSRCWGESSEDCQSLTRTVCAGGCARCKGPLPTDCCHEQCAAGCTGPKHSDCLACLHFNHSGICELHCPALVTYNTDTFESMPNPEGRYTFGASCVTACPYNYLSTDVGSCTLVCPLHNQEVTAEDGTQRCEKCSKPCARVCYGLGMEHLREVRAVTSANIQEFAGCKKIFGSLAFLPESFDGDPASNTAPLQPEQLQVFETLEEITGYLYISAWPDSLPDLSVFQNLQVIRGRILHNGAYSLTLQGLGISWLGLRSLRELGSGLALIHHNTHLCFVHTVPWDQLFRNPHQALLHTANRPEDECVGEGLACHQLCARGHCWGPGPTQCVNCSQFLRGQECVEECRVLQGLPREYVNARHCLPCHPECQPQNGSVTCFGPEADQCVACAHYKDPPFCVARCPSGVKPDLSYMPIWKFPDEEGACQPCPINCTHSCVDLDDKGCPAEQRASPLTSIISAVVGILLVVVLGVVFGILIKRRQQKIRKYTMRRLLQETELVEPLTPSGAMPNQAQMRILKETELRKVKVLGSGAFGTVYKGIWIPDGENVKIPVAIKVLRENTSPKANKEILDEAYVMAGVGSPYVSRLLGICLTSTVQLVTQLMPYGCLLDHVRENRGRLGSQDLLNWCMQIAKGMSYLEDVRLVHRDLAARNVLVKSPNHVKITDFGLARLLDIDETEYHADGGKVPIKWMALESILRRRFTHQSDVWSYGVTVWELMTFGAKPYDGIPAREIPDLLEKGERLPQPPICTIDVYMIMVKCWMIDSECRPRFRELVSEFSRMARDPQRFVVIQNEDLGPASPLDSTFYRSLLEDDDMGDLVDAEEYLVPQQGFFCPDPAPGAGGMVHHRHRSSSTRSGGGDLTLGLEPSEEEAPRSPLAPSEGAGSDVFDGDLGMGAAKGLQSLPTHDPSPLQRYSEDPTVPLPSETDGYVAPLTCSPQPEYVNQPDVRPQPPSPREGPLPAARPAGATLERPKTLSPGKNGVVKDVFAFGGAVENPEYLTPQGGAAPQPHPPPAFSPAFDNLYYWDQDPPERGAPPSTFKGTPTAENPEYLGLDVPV
T1 sequence (P35968 whole entry): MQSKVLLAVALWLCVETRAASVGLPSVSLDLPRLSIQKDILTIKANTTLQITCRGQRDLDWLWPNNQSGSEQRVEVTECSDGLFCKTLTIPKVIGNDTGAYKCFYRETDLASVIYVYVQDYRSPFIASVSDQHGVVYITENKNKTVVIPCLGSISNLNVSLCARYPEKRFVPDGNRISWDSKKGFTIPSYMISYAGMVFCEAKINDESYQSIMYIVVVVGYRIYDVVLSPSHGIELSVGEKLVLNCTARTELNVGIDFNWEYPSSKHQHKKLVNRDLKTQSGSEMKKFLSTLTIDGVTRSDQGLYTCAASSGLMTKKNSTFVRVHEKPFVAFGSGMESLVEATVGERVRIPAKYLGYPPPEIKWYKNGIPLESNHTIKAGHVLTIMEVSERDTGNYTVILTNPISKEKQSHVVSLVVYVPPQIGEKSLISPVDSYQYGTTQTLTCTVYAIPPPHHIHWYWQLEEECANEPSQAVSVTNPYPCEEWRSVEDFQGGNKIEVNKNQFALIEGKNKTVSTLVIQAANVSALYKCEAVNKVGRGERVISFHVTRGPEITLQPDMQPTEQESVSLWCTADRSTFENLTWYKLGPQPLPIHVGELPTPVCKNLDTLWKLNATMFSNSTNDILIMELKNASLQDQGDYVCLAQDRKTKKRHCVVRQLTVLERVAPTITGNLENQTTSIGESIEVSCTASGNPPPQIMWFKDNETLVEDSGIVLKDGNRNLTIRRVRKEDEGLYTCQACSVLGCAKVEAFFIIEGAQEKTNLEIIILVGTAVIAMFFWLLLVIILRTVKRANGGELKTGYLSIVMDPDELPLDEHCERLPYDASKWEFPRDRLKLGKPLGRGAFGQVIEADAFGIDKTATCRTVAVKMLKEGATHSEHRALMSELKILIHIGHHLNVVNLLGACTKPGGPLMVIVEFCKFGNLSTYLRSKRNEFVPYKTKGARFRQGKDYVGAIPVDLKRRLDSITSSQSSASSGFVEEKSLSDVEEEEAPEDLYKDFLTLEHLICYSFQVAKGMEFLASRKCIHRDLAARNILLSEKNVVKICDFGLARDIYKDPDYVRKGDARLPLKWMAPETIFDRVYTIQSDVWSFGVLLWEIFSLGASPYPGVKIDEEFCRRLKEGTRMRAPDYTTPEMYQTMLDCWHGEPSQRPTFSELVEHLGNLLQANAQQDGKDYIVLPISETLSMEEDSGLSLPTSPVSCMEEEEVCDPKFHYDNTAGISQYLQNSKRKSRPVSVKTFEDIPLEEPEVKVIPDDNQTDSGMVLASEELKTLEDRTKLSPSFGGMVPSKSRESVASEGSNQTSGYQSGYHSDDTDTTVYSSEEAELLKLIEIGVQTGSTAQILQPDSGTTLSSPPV
Epidermal growth factor receptor, sequence (P00533 whole entry): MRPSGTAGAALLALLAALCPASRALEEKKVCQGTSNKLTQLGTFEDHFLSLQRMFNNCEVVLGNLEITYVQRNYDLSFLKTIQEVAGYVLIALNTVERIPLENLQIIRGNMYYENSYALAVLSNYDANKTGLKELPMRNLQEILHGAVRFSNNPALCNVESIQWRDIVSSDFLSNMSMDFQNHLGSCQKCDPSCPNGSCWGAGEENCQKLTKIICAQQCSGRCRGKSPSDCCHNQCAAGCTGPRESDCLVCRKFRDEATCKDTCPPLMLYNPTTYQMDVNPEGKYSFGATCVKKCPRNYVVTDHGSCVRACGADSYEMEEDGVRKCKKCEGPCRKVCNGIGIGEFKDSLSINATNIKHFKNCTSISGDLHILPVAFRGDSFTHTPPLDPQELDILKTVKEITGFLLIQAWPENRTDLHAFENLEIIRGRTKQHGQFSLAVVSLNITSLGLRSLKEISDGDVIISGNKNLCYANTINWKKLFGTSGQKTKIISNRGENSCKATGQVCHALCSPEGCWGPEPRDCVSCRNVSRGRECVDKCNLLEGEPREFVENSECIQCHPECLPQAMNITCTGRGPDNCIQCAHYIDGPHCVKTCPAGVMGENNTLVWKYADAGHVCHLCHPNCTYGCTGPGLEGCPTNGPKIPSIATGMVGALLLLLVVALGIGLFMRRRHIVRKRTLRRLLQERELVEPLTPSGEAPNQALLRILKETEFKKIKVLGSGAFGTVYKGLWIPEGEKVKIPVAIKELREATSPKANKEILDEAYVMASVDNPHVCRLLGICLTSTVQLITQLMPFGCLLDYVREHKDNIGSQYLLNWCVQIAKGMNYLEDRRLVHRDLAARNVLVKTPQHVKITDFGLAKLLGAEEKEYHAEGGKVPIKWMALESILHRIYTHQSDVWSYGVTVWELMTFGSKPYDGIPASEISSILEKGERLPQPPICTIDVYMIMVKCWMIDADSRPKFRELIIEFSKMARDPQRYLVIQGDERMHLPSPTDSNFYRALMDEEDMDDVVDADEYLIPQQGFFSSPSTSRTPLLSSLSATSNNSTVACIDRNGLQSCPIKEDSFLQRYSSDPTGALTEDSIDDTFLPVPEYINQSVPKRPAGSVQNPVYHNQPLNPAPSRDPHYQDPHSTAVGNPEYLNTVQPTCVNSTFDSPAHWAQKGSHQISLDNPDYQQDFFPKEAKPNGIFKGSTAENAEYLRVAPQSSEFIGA

As to `CN(C)S(=O)(=O)c1ccc(Nc2ccc(C(=O)c3c(F)cccc3F)c(N)n2)cc1`, the IC50 is greater than 100 µM in assay [1]; greater than 100 µM in assay [2]; 0.59 µM in [3]; 0.5 µM in assay [4]; greater than 10 µM in the assay on A-375; greater than 10 µM in the assay with HeLa. Moreover, the IC50 in the assay with HCT-116 is greater than 10 µM; in assay [5], greater than 100 µM.

`Nc1ccc(C(=O)c2ccccc2)c(N)n1` returned an IC50 in [3] of 1.1 µM.

With `Nc1nc(Nc2ccc(S(N)(=O)=O)cc2)ccc1C(=O)c1c(F)cccc1F`, the IC50 in [1] was greater than 100 µM; in assay [2] it was greater than 100 µM; in assay [3] it was 0.36 µM; in assay [4], 0.18 µM; in the assay with A-375, 6.5 µM; with HeLa, 17.2 µM. Moreover, the IC50 with HCT-116 is 16.5 µM; in [6], greater than 100 µM.

Consider `Nc1nc(Nc2ccc(NS(=O)(=O)c3ccccc3)cc2)ccc1C(=O)c1c(F)cccc1F`, for which half-maximal inhibition in assay [3] (IC50) was put at 0.74 µM.

As to `Nc1ccc(C(=O)c2ccccc2F)c(N)n1`, inhibition in assay [3] was half-maximal at 8.2 µM (IC50).

In assay [3], `CCN(CC)S(=O)(=O)c1ccc(Nc2ccc(C(=O)c3ccco3)c(N)n2)cc1` gave an IC50 greater than 100 µM.

As to `N#Cc1ccc(Nc2ccc(C(=O)c3c(F)cccc3F)c(N)n2)cc1`, the IC50 in [3] stood at 1.37 µM.

For `Nc1nc(Nc2cccc([N+](=O)[O-])c2)ccc1C(=O)c1c(F)cccc1F`, the IC50 in assay [3] was 2.67 µM.

With `Nc1ccc(Nc2ccc(C(=O)c3c(F)cccc3F)c(N)n2)cc1`, the IC50 in assay [3] was 0.75 µM.

For `CN(C)S(=O)(=O)c1ccc(Nc2ccc(C(=O)c3cccs3)c(N)n2)cc1`, the IC50 in [3] is 12.7 µM.

With `Nc1ccccc1Nc1ccc(C(=O)c2c(F)cccc2F)c(N)n1`, 11.6 µM corresponded to half-maximal inhibition in assay [3] (IC50).

Take `Nc1nc(Nc2ccc(S(=O)(=O)N(Cc3ccccc3)Cc3ccccc3)cc2)ccc1C(=O)c1c(F)cccc1F`: the IC50 in [3] was greater than 10 µM.

Consider `Nc1nc(Nc2ccccc2)ccc1C(=O)c1c(F)cccc1F`, for which, in assay [3], the IC50 was determined as 21.7 µM.

On to `Nc1ccc(C(=O)c2cccs2)c(N)n1`, for which the IC50 in assay [3] is greater than 100 µM.

`Nc1ccc(C(=O)c2ccco2)c(N)n1` came in with an IC50 in assay [3] greater than 100 µM.

Compound `CC(=O)Nc1ccccc1Nc1ccc(C(=O)c2c(F)cccc2F)c(N)n1` gave an IC50 in assay [3] greater than 100 µM.

The compound `Nc1nc(Nc2ccccn2)ccc1C(=O)c1c(F)cccc1F` returned an IC50 in assay [3] of 12.3 µM.

In turn, `Nc1nc(Nc2ccccc2NS(=O)(=O)c2ccccc2)ccc1C(=O)c1c(F)cccc1F` came in with an IC50 in assay [3] greater than 100 µM.

Take `CCN(CC)S(=O)(=O)c1ccc(Nc2ccc(C(=O)c3ccccc3)c(N)n2)cc1`: in [3], the IC50 was greater than 100 µM.

In [3], `NC(=O)c1ccc(Nc2ccc(C(=O)c3c(F)cccc3F)c(N)n2)cc1` gave an IC50 of 0.95 µM.

On to `Nc1nc(Nc2ccc(C(=O)O)cc2)ccc1C(=O)c1c(F)cccc1F`, for which the IC50 in assay [3] is roughly 10 µM.

On to `CN(C)S(=O)(=O)c1ccc(Nc2ccc(C(=O)c3ccccc3)c(N)n2)cc1`, for which, in assay [3], the IC50 was 2.19 µM.

Compound `Nc1nc(Nc2ccccc2[N+](=O)[O-])ccc1C(=O)c1c(F)cccc1F` gave an IC50 in assay [3] greater than 10 µM.

With `CCCCOc1cc(Nc2ccc(S(=O)(=O)N(C)C)cc2)nc(N)c1C(=O)c1c(F)cccc1F`, in assay [3], the midpoint of inhibition, the IC50, lay at 1 µM.

Turning to `CCCCOc1cc(N)nc(N)c1C(=O)c1c(F)cccc1F`, in assay [3], the IC50 was determined as 1.2 µM.

As to `CCCCOc1cc(Nc2ccc(S(N)(=O)=O)cc2)nc(N)c1C(=O)c1c(F)cccc1F`, the IC50 in [1] is greater than 100 µM; in assay [2], greater than 100 µM; in [3], 0.26 µM; in [4], 0.084 µM; with A-375, 2.9 µM; in the assay on HeLa, 10.7 µM. In addition, the IC50 with HCT-116 was 6.7 µM; in assay [6] it was greater than 100 µM.

Turning to `CN(C)S(=O)(=O)c1ccc(Nc2ccc(C(=O)c3ccco3)c(N)n2)cc1`, in assay [3], half-maximal inhibition (IC50) required 10.6 µM.

Turning to `CNc1ccc(Nc2ccc(C(=O)c3c(F)cccc3F)c(N)n2)cc1`, it took 1.14 µM to reach half-maximal inhibition in assay [3] (IC50).

`Nc1nc(Nc2ccc([N+](=O)[O-])cc2)ccc1C(=O)c1c(F)cccc1F` registered an IC50 in assay [3] of 0.96 µM.

With `Nc1nc(Nc2cccc(Cl)c2)ccc1C(=O)c1c(F)cccc1F`, the IC50 in assay [3] is 6.16 µM.

`CN(C)S(=O)(=O)c1ccc(Nc2ccc(C(=O)c3ccccc3F)c(N)n2)cc1` yielded a half-inhibitory concentration (IC50) in assay [3] of 1.96 µM.

Turning to `Nc1ccc(C(=O)c2c(F)cccc2F)c(N)n1`, half-maximal inhibition in assay [3] (IC50) was put at 2.6 µM.

Compound `Nc1nc(Nc2ccccc2NC(=O)c2ccccc2)ccc1C(=O)c1c(F)cccc1F` yielded an IC50 in assay [3] greater than 100 µM.
